This is an account of results in patent US20120252796A1, “COMPOUNDS FOR THE TREATMENT OF DYSLIPIDEMIA AND RELATED DISEASES” (priority 2009, published 2012).

Test [1] addresses T1, PCSK9 (Homo sapiens, UniProt Q8NBP7). The test is described as follows: SPR binding studies (BIACORE3000). The settings on record: 25° C., phosphate buffer pH 7.4; compounds run at 10 nM, 100 nM and 1 micro mole, concentration of the value not stated. On the procedure:
Instrumentation: BIACORE3000 from GE Life Sciences was used and the Interaction analysis was performed at 25° C.
Buffers: phosphate buffer pH 7.4 supplied by Biacore supplemented with 0.01% dimethyl sulfoxide (DMSO) was used as running buffer during the assay.
Immobilization of Ligand: Sensor chip CM5 was used for analysis. The sensor chip consists of a carboxymethyl-modified dextran polymer linked to a gold-covered glass support. The ligand was diluted to 10 micro gram/ml in 10 mM sodium acetate, pH5.0 and immobilized to the sensor chip, using amine coupling. Running buffer without DMSO was used during immobilization. The surface was activated by injecting a solution containing 0.2M N-ethyl-N′-dimethyl aminopropyl-carbodiimide (EDC) and 50 mM N-hydroxy succinimide (NHS). The system was set for Aim for immobilization of about 1000 RU and the surface was blocked by injecting 1 Mehanolamine at pH 8.5. Then the surface was washed with 50 mM NaOH by injecting two 30 second-pulses to remove off non covalently bound ligand and to stabilize the baseline (automated procedure). Activated dextran was used as a reference surface. To ensure highest sensitivity the SPR Detector response was normalized before running the assay. By calibrating the detector at various light intensities under Conditions of total internal reflection (automated procedure). Solvent correction for DMSO was also carried to minimize the error in data.
Assay Design: A binding assay was set up for different compounds at three different concentrations (10 nM, 100 nM and 1 micro mole), and were injected over the reference and Ligand flow cells at a flow rate of 30 micro liter/min. Each cycle consisted of a 1-min waiting period for monitoring of the baseline stability and 3 minute injection of compound with a 5 minute Undisturbed dissociation phase, and the surface was regenerated with 50 mM NaoH solution. Compound responses in the reference flow cell were subtracted with that of ligand and a solvent correction run was carried in between and the binding potential of the compounds was reported as relative response units (RU).
Target sequence in this assay (Q8NBP7 153-692): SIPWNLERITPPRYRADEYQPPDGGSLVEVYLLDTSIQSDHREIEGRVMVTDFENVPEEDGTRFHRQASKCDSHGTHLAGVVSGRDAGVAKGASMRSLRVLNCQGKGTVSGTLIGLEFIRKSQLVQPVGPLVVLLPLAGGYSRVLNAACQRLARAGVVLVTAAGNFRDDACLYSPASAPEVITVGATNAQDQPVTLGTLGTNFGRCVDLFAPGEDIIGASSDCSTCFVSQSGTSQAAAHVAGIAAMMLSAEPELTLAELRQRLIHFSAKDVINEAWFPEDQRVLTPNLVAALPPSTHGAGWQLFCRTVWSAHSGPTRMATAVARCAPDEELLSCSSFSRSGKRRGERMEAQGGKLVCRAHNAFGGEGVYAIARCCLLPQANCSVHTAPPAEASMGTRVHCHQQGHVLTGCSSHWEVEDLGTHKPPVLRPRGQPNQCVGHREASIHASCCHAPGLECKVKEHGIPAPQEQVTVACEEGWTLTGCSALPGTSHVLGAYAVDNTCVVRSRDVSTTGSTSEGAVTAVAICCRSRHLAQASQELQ

In test [2] the target is T1, PCSK9. The test is described as follows: PCSK9-LDLR in vitro Binding Assay (ELISA). On the procedure:
The PCSK9-LDLR in vitro Binding Assay is a quantitative solid phase binding assay between PCSK9 and recombinant LDLR. Plates were pre-coated with a recombinant LDLR-AB domain, which binds PCSK9. Test compound at different concentration was added to the PCSK9 and added to LDLR immobilized on the wells. The amount of bound PCSK9 is measured by binding it with biotinylated anti-His-tag monoclonal antibody, followed by binding with horseradish peroxidase conjugated streptavidin substrate. The color was quantified by ELISA reader at […] which reflects the relative amount of PCSK9 that binds to LDLR in presence and absence of the inhibitor. EC50 values were calculated by nonlinear regression analysis using graph pad prism software. Each concentration point represents values in duplicates.
Target sequence in this assay (Q8NBP7 153-692): as above
Target sequence in this assay (Q8NBP7 31-152 partner limits assumed): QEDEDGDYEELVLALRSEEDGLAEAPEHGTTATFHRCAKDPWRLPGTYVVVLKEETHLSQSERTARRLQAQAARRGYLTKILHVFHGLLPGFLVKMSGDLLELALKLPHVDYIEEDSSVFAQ

Test [3] has as its system LPS induced dyslipidemia model C57 mice. Kind of test: LDL-C lowering activity in LPS induced dyslipidemia model C57 mice. As to conditions: male C57 mice, i.p. or oral, 24 hours after LPS, vs Vehicle group. It counts as in vivo. On the procedure: Male C57 mice of 7-10 week age are grouped based on non-fasting LDL-C levels, on next day these mice were administered with Vehicle or test compounds (i.p. or oral) and 30 min after compound administration lipolysaccharide (LPS) was administered. After LPS administration all animals were kept on fasting for 24 hours, after that animals were bled and LDL-C was measured. The percent change in LDL-C in test compound group Vs Vehicle group was calculated.

Test [4] concerns HF-HC diet fed Syrian golden hamsters. The test is described as follows: Lipid lowering effect in HF-HC diet fed hamster model. The format is in vivo. Further details: concentration or dose not given beside the values. As to conditions: oral gavage once daily, day 14. From the text:
In this experiment, Syrian golden hamsters which were kept on high fat—high cholesterol (HF-HC) fructose diet for 2 weeks were divided into various groups based on LDL-C and Total cholesterol levels. The treatment was given by oral gavages once daily for 14 days. The blood was collected by retro-orbital sinus puncture method under light ether anesthesia on day 0 (pretreatment), and day 14 of the treatment for lipid levels measurements. The percent change in LDL-C in compound group Vs Vehicle group was calculated.

Turning to `Cc1oc(-c2ccncc2)nc1CC1COC(C)(C(=O)NCC(=O)N2CCOCC2)OC1` (stereo not drawn) [Example 86, 2-methyl-5-c-((5-methyl-2-(pyridin-4-yl)oxazol-4-yl)methyl)-N-(2-morpholino-2-oxoethyl)-1,3-dioxane-2-carboxamide], the “Relative response (RU)” value in test [1] came to 14.95 RU. The “% Inhibition PCSK9” value in test [2] (Concentration 10 μM, 10 µM) was found to be 11%; in test [2] (Concentration 100 μM, 100 µM), 15%.
Turning to `Cc1oc(-c2ccccc2)nc1CC1COC(C)(C(=O)NCC(=O)N2CCOCC2)OC1` (stereo not drawn) [Example 19, 2-methyl-5-c-((5-methyl-2-phenyloxazol-4-yl)methyl)-N-(2-morpholino-2-oxoethyl)-1,3-dioxane-2-carboxamide], in test [1], the “Relative response (RU)” value is listed as 14.1 RU. Also, the figures for the “% Inhibition PCSK9” value in test [2] (Concentration 10 μM) and in test [2] (Concentration 100 μM) were 23% and 25%, respectively.
On to `Cc1nc(-c2ccc(C(F)(F)F)cc2)sc1CC1COC(C)(C(=O)NO)OC1` (stereo not drawn) [Example 91, N-hydroxy-2-methyl-5-((4-methyl-2-(4-(trifluoromethyl)phenyl)thiazol-5-yl)methyl)-1,3-dioxane-2-carboxamide], for which the “% Change in LDL-C” value in test [3] is reported as −37.4 ± 8.8%. This compound also had an inhibition at 1 µM in test [2] (Concentration 1 μM) of 8%. For the same compound, the inhibition at 10 µM in test [2] (Concentration 10 μM) was 12%. Further, at 100 µM the inhibition in test [2] (Concentration 100 μM) was 32%.
Regarding `Cc1oc(-c2ccccc2)nc1CC1COC(C)(C(=O)N2CCN(C)CC2)OC1` (stereo not drawn) [Example 14, (2-methyl-5-c-((5-methyl-2-phenyloxazol-4-yl)methyl)-1,3-dioxan-2-yl)(4-methylpiperazin-1-yl)methanone], in test [1], the “Relative response (RU)” value is recorded as 15.81 RU. Moreover, the “% Inhibition PCSK9” value in test [2] (Concentration 10 μM) was found to be 41%; in test [2] (Concentration 100 μM) it was 5%.
Consider `Cc1oc(-c2ccccc2)nc1CC1COC(C)(C(=O)N2CCOCC2)OC1` (stereo not drawn) [Example 12, (2-methyl-5-c-((5-methyl-2-phenyloxazol-4-yl)methyl)-1,3-dioxan-2-yl)(morpholino)methanone], for which the “% Change in LDL-C” value in test [3] is recorded as −40 ± 10.0%. Further, the “% Inhibition PCSK9” value was determined as 19% in test [2] (Concentration 10 μM) and 18% in test [2] (Concentration 100 μM).
As to `Cc1oc(C(C)(C)C)nc1CC1COC(C)(C(=O)N2CCOCC2)OC1` (stereo not drawn) [Example 73, (5-((2-(tert-butyl)-5-methyloxazol-4-yl)methyl)-2-methyl-1,3-dioxan-2-yl)(morpholino)methanone], the “Relative response (RU)” value in test [1] turned out to be 2.4 RU. Also, testing at 1 µM in test [2] (Concentration 1 μM) gave an inhibition of 25%. Further, the inhibition at 10 µM in test [2] (Concentration 10 μM) amounted to 27%. In test [2] (Concentration 100 μM), this compound registered an inhibition at 100 µM of 37%.
In the case of `Cc1oc(-c2ccccc2)nc1CCC1COC(C)(C(=O)NCC2CCOCC2)OC1` (stereo not drawn) [Example 37, 2-methyl-5-(2-(5-methyl-2-phenyloxazol-4-yl)ethyl)-N—((tetrahydro-2H-pyran-4-yl)methyl)-1,3-dioxane-2-carboxamide], the “% Change in LDL-C” value in test [3] is −35.4 ± 8.3%. This compound also had an inhibition at 1 µM in test [2] (Concentration 1 μM) of 24%. The compound also showed an inhibition at 10 µM in test [2] (Concentration 10 μM) of 15%. This compound returned an inhibition at 100 µM in test [2] (Concentration 100 μM) of 20%.
With `Cc1ccc(-c2nc(CC3COC(C)(C(=O)NCC4CCOCC4)OC3)c(C)o2)cc1` (stereo not drawn) [Example 64, 2-methyl-5-t-((5-methyl-2-(p-tolyl)oxazol-4-yl)methyl)-N—((tetrahydro-2H-pyran-4-yl)methyl)-1,3-dioxane-2-carboxamide], the “Relative response (RU)” value in test [1] was 3.48 RU. The “% Inhibition PCSK9” value is recorded as 20% in test [2] (Concentration 0.1 μM); 23% in test [2] (Concentration 1 μM, 1 µM); 25% in test [2] (Concentration 10 μM, 10 µM); 49% in test [2] (Concentration 100 μM, 100 µM).
With “1-(2-methyl-5-((4-methyl-2-(4-(trifluoromethyl)phenyl)thiazol-5-yl)methyl)-1,3-dioxan-2-yl)-N—((tetrahydro-2H-pyran-4-yl)methyl)methanamine [Example 92]”, the “% Change in LDL-C” value in test [3] is −35.8 ± 10.5%. Besides, the “% Inhibition PCSK9” value is reported as 11% in test [2] (Concentration 1 μM), 26% in test [2] (Concentration 10 μM) and 40% in test [2] (Concentration 100 μM).
On to `Cc1oc(-c2ccccc2)nc1CCC1COC(C)(C(=O)N2CCOCC2)OC1` (stereo not drawn) [Example 40, (2-methyl-5-(2-(5-methyl-2-phenyloxazol-4-yl)ethyl)-1,3-dioxan-2-yl)(morpholino)methanone], for which, in test [3], the “% Change in LDL-C” value is listed as −34.1 ± 5.7%. The inhibition at 1 µM in test [2] (Concentration 1 μM) worked out at 20%. Besides, in test [2] (Concentration 10 μM), 10 µM produced 25% inhibition. Further, in test [2] (Concentration 100 μM), the inhibition at 100 µM worked out at 11%.
As for `Cc1oc(-c2ccccc2)nc1CC1COC(C)(C(=O)NCCC(=O)N2CCOCC2)OC1` (stereo not drawn) [Example 26, 2-methyl-5-c-((5-methyl-2-phenyloxazol-4-yl)methyl)-N-(3-morpholino-3-oxopropyl)-1,3-dioxane-2-carboxamide], the “Relative response (RU)” value in test [1] is listed as 10.3 RU.
As to `Cc1oc(-c2ccncc2)nc1CC1COC(C)(C(=O)NCC2CCOCC2)OC1` (stereo not drawn) [Example 85, 2-methyl-5-t-((5-methyl-2-(pyridin-4-yl)oxazol-4-yl)methyl)-N—((tetrahydro-2H-pyran-4-yl)methyl)-1,3-dioxane-2-carboxamide], the “Relative response (RU)” value in test [1] came to 17.29 RU. In addition, the “% Inhibition PCSK9” value in test [2] (Concentration 1 μM, 1 µM) is reported as 22%; in test [2] (Concentration 10 μM, 10 µM) it was 30%; in test [2] (Concentration 100 μM, 100 µM) it was 44%.
In the case of `Cc1oc(-c2ccccc2)nc1CC1COC(C)(C(=O)NO)OC1` (single isomer, unassigned) [Example 7, N-hydroxy-2-methyl-5-t-((5-methyl-2-phenyloxazol-4-yl)methyl)-1,3-dioxane-2-carboxamide], in test [4], the “% Change Vs Vehicle Control HDL-C” value was −20.1%, the “% Change Vs Vehicle Control LDL-C” value is recorded as −29.3%, the “% Change Vs Vehicle Control TC” value is −29.6% and the “% Change Vs Vehicle Control TG” value is given as −26.7%. In addition, in test [2] (Concentration 1 μM), the “% Inhibition PCSK9” value is reported as 11%. For the same compound, in test [2] (Concentration 10 μM), the “% Inhibition PCSK9” value is on record as 12%. Moreover, the “% Inhibition PCSK9” value in test [2] (Concentration 100 μM) is recorded as 20%.
For `Cc1oc(-c2ccncc2)nc1CC1COC(C)(C(=O)NO)OC1` (stereo not drawn) [Example 80, N-hydroxy-2-methyl-5-c-((5-methyl-2-(pyridin-4-yl)oxazol-4-yl)methyl)-1,3-dioxane-2-carboxamide], the “Relative response (RU)” value in test [1] is listed as 2.64 RU. Also, the “% Inhibition PCSK9” value in test [2] (Concentration 1 μM, 1 µM) turned out to be 32%; in test [2] (Concentration 10 μM, 10 µM) it was 44%; in test [2] (Concentration 100 μM, 100 µM), 34%.
As to “N-hydroxy-2-methyl-5-(2-(5-methyl-2-phenyloxazol-4-yl)ethyl)-1,3-dioxane-2-carboxamide [Example 34]”, the “Relative response (RU)” value in test [1] is on record as 1.95 RU. In test [4], the “% Change Vs Vehicle Control HDL-C” value is on record as −10.3%, the “% Change Vs Vehicle Control LDL-C” value is given as −38.2%, the “% Change Vs Vehicle Control TC” value is −32.6% and the “% Change Vs Vehicle Control TG” value amounted to 2.2%. For the same compound, in test [2] (Concentration 1 μM), the “% Inhibition PCSK9” value is reported as 11%. Besides, in test [2] (Concentration 10 μM), the “% Inhibition PCSK9” value is 12%. Also, the “% Inhibition PCSK9” value in test [2] (Concentration 100 μM) was determined as 15%.
For the compound `Cc1oc(-c2ccccc2)nc1CC1COC(C)(C(=O)NO)OC1` (single isomer, unassigned) [Example 6, N-hydroxy-2-methyl-5-c-((5-methyl-2-phenyloxazol-4-yl)methyl)-1,3-dioxane-2-carboxamide], in test [1], the “Relative response (RU)” value worked out at 2.65 RU. Also, the “% Inhibition PCSK9” value amounted to 10% in test [2] (5 µM), 11% in test [2] (10 µM) and 22% in test [2] (100 µM).
As to `Cc1ccc(-c2nc(CC3COC(C)(C(=O)NO)OC3)c(C)o2)cc1` (stereo not drawn) [Example 59, N-hydroxy-2-methyl-5-((5-methyl-2-(p-tolyl)oxazol-4-yl)methyl)-1,3-dioxane-2-carboxamide], the “Relative response (RU)” value in test [1] is on record as 1.36 RU. The same compound gave an inhibition at 1 µM in test [2] (Concentration 1 μM) of 26%. In test [2] (Concentration 10 μM), this compound returned an inhibition at 10 µM of 27%. In test [2] (Concentration 100 μM), this compound returned an inhibition at 100 µM of 61%.
